Laboratory results from publication PMC6789589, “A Convenient Synthetic Method to Improve Immunogenicity of Mycobacterium tuberculosis Related T-Cell Epitope Peptides” (Vaccines, 2019).
Starred links: 1 amine or outer side, 2 acyl side, 3 side chain; linkers in the order of their positions; H or OH if unused. Positions of bridges follow the written chain, without caps; N, C: chain ends. Residues, ends and D or L forms follow the SMILES beside them. Chains are numbered I, II in the order given. *: point of attachment. X1 = O=C1CC([*:2])C(=O)N1CCCCCC(=O)[*:1]; Palmitoyl = CCCCCCCCCCCCCCCC(=O)*

Legend:
[1] = tested on: MonoMac6 human monocytes (MM6); assay: Cellular uptake (internalization) by flow cytometry in MonoMac6; settings: Cf-labelled compounds, MM6, 2.5 µM, 2 h, flow cytometry histograms (Figure S1)
Experimental: Internalization of the compounds was measured in the MonoMac6 (MM6) human monocytic cell line [31] and on murine bone marrow-derived macrophages (BMDMs). MonoMac6 cells were maintained as an adherent culture in RPMI-1640 supplemented with 10% heat-inactivated fetal calf serum (FCS) L-glutamine (2 mM) and gentamicin (35 μM) at 37 °C in a humidified atmosphere containing 5% CO2. […] For the assay, cells were treated with peptides at 2.5 µM final concentration and were incubated for 2 hours. After centrifugation (1000 rpm, 5 min) and washing with serum-free RPMI medium, supernatant was removed and 100 μL 0.25% trypsin was added to the cells. After 5 min incubation, 0.8 mL 10% FCS/HPMI medium was added, then cells were washed and re-suspended in 0.3 mL HPMI medium. The intracellular fluorescence intensity of the cells was measured on a BD LSR II flow cytometer (BD Biosciences, San Jose, CA, USA) on channel FITC (emission at λ = 505 nm) and data were analyzed with FACSDiva 5.0 software (BD Biosciences, San Jose, CA, USA). External fluorescence quenching was performed by adding 10 µL of 0.04% trypan blue solution. […]
treated with the compounds, then cells were analyzed by flow cytometry. To quantify viable cells, […]
negative control, RPMI medium was used (b) and the FITC-negative population was determined on this

antigen presenting cells = assay: Time course of cellular uptake by flow cytometry; assay type: cell-based; settings: incubation 15 min to 16 h, FITC-positive cells and mean fluorescence intensity (Figure 3c)
Experimental: To further analyze the internalization of the compounds, the time course of the cellular uptake rate was measured by flow cytometry. […] The internalization rate of pal-A(P)I conjugate was very fast.
Figure 3 Detailed study on the cellular uptake by antigen presenting cells and the time course of internalization. Fluorescence intensity of compound treated cells was analyzed by flow cytometry (a) with or without trypsinization, and (b) in the presence or absence of trypan blue. No significant differences were observed after eliminating the fluorescent signal from adsorbed peptides or conjugates. (c) To study the time course of internalization, different incubation periods (15 min, 1 h, 3 h, 6 h, and 16 h) were applied, and the intracellular fluorescence intensity was measured. (d) The viability of compound-treated cells was compared to untreated control cells, and relative viabilities are presented. The viability of the control cells was always > 85% (results are represented as mean ± SEM, n = 3).

MM6 cells = assay: Intracellular localization by confocal laser scanning microscopy; assay type: cell-based, human; settings: Cf-labelled peptides, 60 min; P/A/I mix 5 µM, A(P)I 2.5 µM, pal-A(P)I 0.5 µM
Experimental: Cellular uptake and localization were visualized by confocal microscopy. MM6 cells were seeded (10^5 cells/well) one day prior to treatment on cover glass containing 24-well plates (Sarstedt, Nümbrecht, Germany). Lysosomes were stained by LysoTracker^TM Deep Red (Invitrogen, Carlsbad, CA, USA) for 30 min, followed by incubation with Cf-labeled peptides for 60 min. Subsequently, nuclei were stained by Hoechst 33342 solution (Thermo Scientific, Waltham, MA, USA). After each step, cells were washed three times with serum-free medium. Cells were fixed by 4% paraformaldehyde for 15 min and mounted to microscopy slides with Mowiol® 4–88. Imaging was performed on a Zeiss LSM 710 system with 40× oil immersion objective. Images were processed with ZEN lite software (Zeiss, Oberkochen, Germany).
Localization of the compounds was visualized by confocal laser scanning microscopy in MM6 cells (Figure 2c). Cells were incubated with Cf-labelled peptides for 60 min; moreover, nuclei and lysosomes were also stained. The peptide concentrations for P/A/I mix, A(P)I, and pal-A(P)I were 5, 2.5, and 0.5 µM, respectively. As different compound concentrations and laser intensities were also used to visualize the compounds showing low or high internalization, the presented images give information about the intracellular localization and are not to be considered in a quantitative manner.

[2] = Water solubility (observation); assay type: physicochemical
[3] = tested on: human erythrocyte suspension; assay: Hemolytic activity assay on human erythrocyte suspension; assay type: cell-based; settings: 2% (v/v) human erythrocyte suspension, 2 h, 37 °C, 0.05–100 µM
Experimental: The hemolytic activity of the compounds was measured on human erythrocyte suspension. Cytotoxicity was assayed on murine BMDM. These two experiments are detailed in the Supplementary Information.
The hemolytic activity of the compounds was assayed as described previously. Briefly, peripheral blood from healthy volunteers was collected in vacuum tubes containing heparin (Li-heparin LH, VenoSafe) as anticoagulant. Tubes were centrifuged (1000 g, 5 min) and the pellet was washed three times with RPMI-1640 (culturing medium without phenol red). RPMI medium was added to the pellet to yield a final 2% (v/v) RBC suspension. […]
0.5%). […] After centrifugation (1000 g, 5 min), 100 µL of the supernatant was transferred to a flat-bottom microtiter plate and absorbance was measured at 414 nm using an ELISA plate reader (iEMS Reader, Labsystems). The percentage hemolysis was compared to a hemolytic control peptide (CM15, 200 μM) treated RBC and the concentration of peptide at which 50% hemolysis occurred (HC50 value) was determined. Compounds were measured in triplicates.
The cytotoxic effect of the compounds was measured on murine BMDMs. […] The precipitated purple crystals were dissolved in 100 μL DMSO, and after 10 minutes agitation, the absorbance was determined at λ = 540 nm and 620 nm using an ELISA plate reader (iEMS Reader, Labsystems). […]
1 Determined on 2% (v/v) human erythrocyte suspension. […]

Row | Compound | percentage of FITC-positive cells [1] | time course of internalization, in words (antigen presenting cells) | intracellular localization (MM6 cells) | water solubility [2] | Hemolytic activity HC50 ± sd [3]
1 | CC[C@H](C)[C@H](NC(=O)CNC(=O)[C@H](Cc1ccccc1)NC(=O)[C@@H](N)Cc1ccccc1)C(=O)N[C@@H](CC(N)=O)C(=O)N[C@H](C(=O)N[C@H](C(=O)N1CCC[C@H]1C(=O)N[C@H](C(=O)N[C@@H](C)C(=O)N[C@@H](CSC1CC(=O)N(CCCCCC(=O)NCCCC[C@H](NC(=O)[C@@H](NC(=O)[C@H](CC(C)C)NC(=O)[C@H](CCCNC(=N)N)NC(=O)[C@@H](NC(=O)[C@H](CC(N)=O)NC(=O)[C@H](CC(N)=O)NC(=O)[C@H](C)NC(=O)[C@@H](NC(=O)[C@H](CC(C)C)NC(=O)[C@H](CCCCN)NC(C)=O)C(C)C)[C@@H](C)O)[C@@H](C)O)C(=O)N2CCC[C@H]2C(=O)N[C@@H](CCCCN)C(=O)NCC(=O)NCC(=O)N[C@@H](CC(C)C)C(=O)N[C@H](C(=O)N[C@@H](CC(=O)O)C(=O)N[C@H](C(=O)N[C@@H](C)C(=O)N2CCC[C@H]2C(=O)N[C@@H](Cc2c[nH]cn2)C(=O)N[C@@H](CCC(N)=O)C(=O)N[C@H](C(=O)N[C@@H](CO)C(=O)N[C@@H](CO)C(=O)N[C@H](C(N)=O)C(C)C)[C@@H](C)CC)[C@@H](C)CC)[C@@H](C)CC)C1=O)C(N)=O)[C@@H](C)CC)[C@@H](C)CC)[C@@H](C)O (some centres unmarked) [A(P)I, KLVANNTRL-TKmal(FFGINTIPIAC)PKG-GLIDIAPHQISSV] (I: Ac-KLVANNTRLTKPKGGLIDIAPHQISSV-NH2 / II: H-FFGINTIPIAC-NH2; linker I:11-II:11 via X1; N-terminus and C-terminus assumed) | 21.5% | significantly slower than the internalization of pal-A(P)I | colocalization with lysosomes that was even more pronounced | – | –
2 | CCCCCCCCCCCCCCCC(=O)N[C@@H](CCCCN)C(=O)N[C@@H](CC(C)C)C(=O)N[C@H](C(=O)N[C@@H](C)C(=O)N[C@@H](CC(N)=O)C(=O)N[C@@H](CC(N)=O)C(=O)N[C@H](C(=O)N[C@@H](CCCNC(=N)N)C(=O)N[C@@H](CC(C)C)C(=O)N[C@H](C(=O)N[C@@H](CCCCNC(=O)CCCCCN1C(=O)CC(SC[C@H](NC(=O)[C@H](C)NC(=O)[C@@H](NC(=O)[C@@H]2CCCN2C(=O)[C@@H](NC(=O)[C@@H](NC(=O)[C@H](CC(N)=O)NC(=O)[C@@H](NC(=O)CNC(=O)[C@H](Cc2ccccc2)NC(=O)[C@@H](N)Cc2ccccc2)[C@@H](C)CC)[C@@H](C)O)[C@@H](C)CC)[C@@H](C)CC)C(N)=O)C1=O)C(=O)N1CCC[C@H]1C(=O)N[C@@H](CCCCN)C(=O)NCC(=O)NCC(=O)N[C@@H](CC(C)C)C(=O)N[C@H](C(=O)N[C@@H](CC(=O)O)C(=O)N[C@H](C(=O)N[C@@H](C)C(=O)N1CCC[C@H]1C(=O)N[C@@H](Cc1c[nH]cn1)C(=O)N[C@@H](CCC(N)=O)C(=O)N[C@H](C(=O)N[C@@H](CO)C(=O)N[C@@H](CO)C(=O)N[C@H](C(N)=O)C(C)C)[C@@H](C)CC)[C@@H](C)CC)[C@@H](C)CC)[C@@H](C)O)[C@@H](C)O)C(C)C (some centres unmarked) [pal-A(P)I, palmitoyl-KLVANNTRL-TKmal(FFGINTIPIAC)PKG-GLIDIAPHQISSV] (I: Palmitoyl-KLVANNTRLTKPKGGLIDIAPHQISSV-NH2 / II: H-FFGINTIPIAC-NH2; linker I:11-II:11 via X1) | – | – | – | very low water solubility | > 100 µM
